Laboratory results as given in US20230235077A1, “MATERIALS AND METHODS OF TREATING CANCER” (THE GENERAL HOSPITAL CORPORATION, priority 2020, published 2023).

Legend:
[1] = tested on: D4M.3A melanoma cells; test: D4M.3A melanoma in mice: interval versus continuous mepazine with anti-PD-1 (Example 1); assay type: in vivo; details: female C57BL/6 mice; mepazine 16 mg/kg i.p. daily on days 7-10 only versus continuously to day 19; with anti-PD-1 mAb 200 μg i.p. daily; FIG. 1
Procedure: Female C57BL/6 mice were implanted subcutaneously with 10^6 D4M.3A melanoma cells. Starting 7 days later (arrow), animals were treated with daily i.p. injections of 200 μg of anti-PD-1 mAbs (clone 29F.1A12) or isotype control mAb (rat IgG2a). Some animals in addition received daily i.p. injections of 16 mg/kg bodyweight of the allosteric MALT-1 inhibitor mepazine, either for the first 4 days (days 7-10) only, or continuously until the end of the experiment on day 19. Tumor size was measured using a caliper every 2-3 days. n=4/group. *=p<0.05 versus Ctrl.

[2] = tested on: D4M.3A syngeneic tumors; test: D4M.3A syngeneic tumor efficacy study: (S)-mepazine IP ×3, ×7 or QD with anti-PD1 (Example 6); assay type: in vivo, C57BL/6 mice
Procedure: Male C57BL/6 mice were implanted subcutaneously with D4M.3A syngeneic tumors. The mice were dosed with (S)-mepazine IP and with anti-PD1 mouse clone 29F.1A12 dosed 3 times 200 μg/dose at days 0, 2, and 4 of a treatment cycle. A ×3 arm of mice were dosed at days 0, 1, and 3 of a 21 day treatment cycle with (S)-mepazine IP. A ×7 arm of mice were dosed at days 0-6 of a 21 day treatment cycle with (S)-mepazine IP. A QD arm of mice were dosed daily with (S)-mepazine IP. Tumor volume was measured each day. The results of the study are shown in FIGS. 2 and 3, for ×3 arm and ×7 arm, respectively.

[3] = tested on: D4M.3A syngeneic tumors; test: D4M.3A syngeneic tumor efficacy study: (S)-mepazine PO 5 days on/5 days off or QD with anti-PD1 (Example 7); assay type: in vivo; details: male C57BL/6 mice; (S)-mepazine PO 5 days on and 5 days off versus each day; with anti-PD1 200 μg at days 0, 2, 4; FIG. 4
Procedure: Male C57BL/6 mice were implanted subcutaneously with D4M.3A syngeneic tumors. The mice were dosed with (S)-mepazine PO and with anti-PD1 mouse clone 29F.1A12 dosed 3 times 200 μg/dose at days 0, 2, and 4 of a treatment cycle. The mice were dosed 5 days on with (S)-mepazine and 5 days off (a dose holiday) (5+5) or each day with (S)-mepazine (QD) PO. Tumor volume was measured each day.

Compound | Tumor size, interval versus continuous treatment [1] | Tumor control of ×3 and ×7 arms versus QD dosing arm ([2]; (S)-mepazine IP with anti-PD1, up to 7 days after (S)-mepazine was dosed) | Tumor volume, activity against the tumor compared to anti-PD1 alone, ×3 arm ([2]; male C57BL/6 mice, (S)-mepazine IP on days 0, 1 and 3 of 21 day cycle, with anti-PD1 200 μg at days 0, 2, 4, FIG. 2) | Tumor volume, activity against the tumor compared to anti-PD1 alone, ×7 arm ([2]; male C57BL/6 mice, (S)-mepazine IP on days 0-6 of 21 day cycle, with anti-PD1 200 μg at days 0, 2, 4, FIG. 3) | Duration of efficacy for tumor control after (S)-mepazine was dosed ([2]; ×3 and ×7 arms, (S)-mepazine IP with anti-PD1, male C57BL/6 mice) | Tumor volume, 5+5 dosing versus QD dosing [3]
CN1CCCC(CN2c3ccccc3Sc3ccccc32)C1 (racemic) [mepazine] | at least as effective as continuous treatment |  |  |  |  | 
CN1CCC[C@H](CN2c3ccccc3Sc3ccccc32)C1 [(S)-mepazine] |  | comparable to the QD dosing arm | improved activity against the tumor compared to anti-PD1 alone | improved activity against the tumor compared to anti-PD1 alone | up to 7 days | equivalent to a QD dosing schedule
